Results from patent US20190355440A1, “FLOW CYTOMETRY DATA […] ANTIMICROBIAL AGENT S[…]” (priority 2016, published 2019).

System: Enterobacteriaceae strains
Assay: FCM-AST: flow cytometry fluorescence distribution (DiBAC4(3) membrane depolarization marker) of antibiotic-treated strains
Type: cell-based
Experimental: In a next step 22, liquid samples with different concentrations {C1, . . . , Cm} of the antibiotic are prepared for each of the selected strains Si, where C1=0 (no antibiotic) and m>2 is the number of non-null concentrations of antibiotic. Said concentrations are stored in the computer unit 14. […] After 2 h growth at 35° C. with shaking at 180 rpm, the resulting exponential phase bacterial culture is normalized at 0.5 McF and used to inoculate wells of a microtiterplate supplemented with antibiotics at the different concentrations {C1, . . . , Cm}. After 1 h of incubation at 35° C., a membrane depolarization fluorescent marker, for example (Bis-(1,3-Dibutylbarbituric Acid)Trimethine Oxonol), also known as “DiBAC4(3)”, is added to the wells at a final concentration of 0.5 μg/ml. An additional 15 min incubation with the marker is at 35° C. is then carried out. The concentrations {C1, . . . , Cm} are chosen such that the range [BPS, BPR] is included or equal to the range [C2, Cm] of non-null concentrations.
In the step 24, a FCM acquisition is performed for each sample by means of the flow-cytometer 12 and the corresponding FSC, SSC and fluorescence distributions stored in the computer unit 14. For each strain Si, and for each concentration Cj, a FSC distribution “FSCi,j”, a SSC distribution “SSCi,j” and a fluorescence distribution “FIi,j” are thus stored in the computer unit 14, e.g. in the form of digital vectors.
The experiment was performed as described in the following lines: • A panel of 107 Enterobacteriaceae strains (FIG. 6: Distribution of the panel of strains according to their MICs for Gentamicin) were treated with 0, 2, 4 and 8 mg/L of Gentamicin following the protocol described in FIG. 3 and analyzed by FCM.
In this experiment, we have made an evaluation of wide range of prediction models for Ceftazidime: • 128 Enterobacteriaceae strains (FIG. 9: Distribution of the panel of strains according to their MICs for Ceftazidime) were treated or not with four different concentrations of Ceftazidime (1, 2, 4 and 8 mg/L) using the FCM protocol described in FIG. 3; • FCM data were used to generate feature vectors as described above; • For each strategy (BPS, GS and GMS), 7 type of prediction models were built based on the feature vectors generated (FIG. 10: Number of predictions models generated. “FL1” means fluorescence); • The performance of all models were evaluated following cross validation as described above.

Which “fluorescence distribution of treated strains (inferred from poor performance of quantile models)” value (128 Enterobacteriaceae strains, 1, 2, 4 and 8 mg/L Ceftazidime) does the source give for CC(C)(O/N=C(\C(=O)N[C@@H]1C(=O)N2C(C(=O)[O-])=C(C[n+]3ccccc3)CS[C@H]12)c1csc(N)n1)C(=O)O [Ceftazidime] here?
Its value is “the majority of strains treated with Ceftazidime exhibit homogeneous distributions of fluorescence”.

For Gentamicin, which “fluorescence distribution profile vs untreated sample” value (intermediate phenotype strains, 2 mg/L Gentamicin) is on record?
The value was “more strains showed no shift of fluorescence (profile A)”.

And the “fluorescence distribution profile vs untreated sample” value (intermediate phenotype strains, 4 and 8 mg/L Gentamicin)?
The value was “equal number of strains exhibited either no shift (profile A) or heterogeneous fluorescence distribution (profile B)”.

And the “resistant strains that did not show any shift in fluorescence (profile A)” value (resistant strains, all concentrations tested (2, 4, 8 mg/L))?
The value was 36 out of 37.

And the “fluorescence distribution profile vs untreated sample” value (susceptible phenotype strains, panel of 107 strains, 2 mg/L Gentamicin)?
Its value is “equal number of strains exhibited either no shift (profile A) or heterogeneous fluorescence distributions (profile B)”.

What about the “fluorescence distribution profile vs untreated sample” value (susceptible phenotype strains, panel of 107 strains, 4 and 8 mg/L Gentamicin) of the same compound?
Its value is “the majority of strains exhibited an heterogeneous fluorescence distribution (profile B)”.
